Measured values reported in patent US9510593B2, “S-benzylthiouracil compounds and methods of enhancing plant root growth” (Valent BioSciences Corporation, priority 2014, dated 2016).

Columns and labels:
Type in all cases: in vivo
Wheat (cultivar; Apogee) = assay: Wheat yield enhancement by foliar spray treatment under high temperature stress; settings: for Average fresh weight of young ears: 36° C./32° C. for 7 days, 56th day after seeding, control 1.68
Method: Wheat (cultivar; Apogee) was sown in soil pots (5 seeds/pot) and then cultivated in a growth chamber at a temperature of 18° C. (day)/15° C. (night) and at a day length of 12 hours for 28 days. Plants were thinned to 3 plants/pot. On the 28th day after sowing, the plants were treated by foliar spray application with a solution containing the test compound. On the 2nd day after the spray application the plants were subjected to high temperatures for 7 days in a growth chamber 36° C. (day)/32° C. (night) and a day length of 12 hours. After the stress treatment, the plants were cultivated in a growth chamber at a temperature of 18° C. (day)/15° C. (night) and a day length of 12 hours. On the 56th day after seeding, the total fresh weight of the young ears from the 3 plants in each pot was measured (n=8 replicates).
Wheat seeds (cultivar; Apogee) were sown in soil pots (5 seeds/pot) and then cultivated in a growth chamber at a temperature of 18° C. (day)/15° C. (night) and at a day length of 12 hours for 28 days. The wheat plants on the 28th day after seeding were treated by foliar spray application with a solution containing the Compound 1 at concentrations of 1 ppm to 100 ppm. As an untreated control group, the plants were treated with blank solution without Compound 1. Three seedlings per pot were used for the test. On the 2nd day after the spray application, the plants were treated with high temperature for 7 days in a growth chamber at a temperature of 36° C. (day)/32° C. (night) and a day length of 12 hours. After the stress treatment, the plants were cultivated in a growth chamber at a temperature of 18° C. (day)/15° C. (night) and a day length of 12 hours. On the 56th day after seeding, total fresh weight of young seed heads from 3 plants in each pot were measured for 8 replicates of each treatment.

tomato = assay: Tomato petri plate assay; settings: Solanum lycopersicum, 144 h; 10 ppm; after 6 days of continuous exposure; read-out: Percent Increase (percent change in primary tomato root length)
Method: For tomato, the plants were grown in disposable (150 mm) sterile plastic petri plates (Falcon, BD Biosciences, Franklin Lakes, N.J.). In the tomato assay, a single sheet of Whatman #1 filter paper was placed at the bottom of the plate, 15 tomato seeds were added, and 10 mL of treatment solution was added. At the end of 6 d, the 10 largest seedlings were selected for measurement from each plate. In each study, a minimum of 3 replicate plates were used. In tomato, several S-Benzylthiouracil compounds were tested to determine the effects on root growth.

[1] = test system: Maize (cultivar; Kuromochi); assay: Maize growth promotion by seed treatment; settings: for Percent (shoot weight, untreated control = 100) / Average weight of the shoots: 18th day after seeding; for Average weight of the shoots: control 3.8
Method: Maize seeds (cultivar; Kuromochi) were treated with Compound 1 at dose rates of 0.005 grams to 0.5 gram per 100 kilogram seeds. The seeds were sown into a soil pot (one seed/pot) and then cultivated in a growth chamber at a temperature of 27° C. and a day length of 16 hours for 18 days. On the 18th day after seeding, the fresh shoot weight of each plant was examined for 3 replicates.

mungbean = assay: Mungbean pouch assay: growth of primary root and shoot; settings: for Shoot Length / Root Length: 4 days after sowing in growth pouches; for Shoot Length: control 4.8; for Root Length: control 8.8
Method: Seeds were placed in germination pouches consisting of germination paper as an insert in a gas-permeable 16×14 cm plastic pouch (CYG Pouch; Mega International, St. Paul, Minn.). In pouch solution evaluation, S-Benzylthiouracil compounds or their salts were dissolved in a small volume of DMSO and added to sterile water with a maximum of 0.5% v/v DMSO at final dilution. The S-Benzylthiouracil solution was subsequently pipetted into the growth pouch, followed by the addition of seeds of the crop being tested. The pouches were arranged in a randomized complete block design in growth racks and placed in 19-liter polycarbonate food storage containers (Rubbermaid Commercial Products, Winchester, Va.). The sealed containers were held in an upright growth cabinet maintained at 25 C with a 12 hour light: 12 hour dark photoperiod. For rice, plants were harvested at 6 d, while in mungbean and corn, the plants were harvested at 4 d post sowing. Measurements were performed on the primary root and shoot of each seedling. The growth of the primary root of mungbean was examined in the pouch assay system. The results of the testing, presented as percent change in root length across all the free S-Benzylthiouracil compounds is shown below. The following S-Benzylthiouracil compounds have benzyl substitutions as defined in Table 11 below.

[2] = test system: Arabidopsis accession Columbia; assay: Arabidopsis petri plate (agar medium) assay, root growth; settings: 6 days after sowing, control 3.3
Method: For Arabidopsis, a solid medium was required. Typically, half-strength MS salts were dissolved in water, and 1% (w/v) BactoAgar (DIFCO) was added. Following autoclaving, sterile S-Benzylthiouracil solutions were added to medium prior to pouring 30 mL of agar medium per petri plate. Arabidopsis seeds were sown in a sterile manner, and seeds were germinated and grew on the agar surface until primary root length was measured.
Of increased importance for understanding mode of action, Arabidopsis has become the model system of choice. In Table 20, the effect of Compound 1 in growth medium on root growth of Arabidopsis accession Columbia is shown.

[3] = seed treatment 0.005 grams/100-kg seeds
[4] = seed treatment 0.05 grams/100-kg seeds
[5] = seed treatment 0.5 grams/100-kg seeds

Oc1ccnc(SCc2cccc(F)c2)n1 [Compound 1, S-(3-Fluorobenzyl)-2-thiouracil] was tested, and the “Average fresh weight of young seed heads versus untreated controls, in words” value (Wheat (cultivar; Apogee); 1 ppm to 100 ppm foliar spray, high temperature stress) was “larger than those of the untreated controls”, the “Average fresh weight of young ears” value (Wheat (cultivar; Apogee); foliar spray 1 ppm) was 1.71 grams/3 plants and the “Percent (untreated control = 100)” value (Wheat (cultivar; Apogee); foliar spray 1 ppm, high temperature stress) was 105%. The “Average fresh weight of young ears” value (Wheat (cultivar; Apogee); foliar spray 10 ppm) was 1.70 grams/3 plants, the “Percent (untreated control = 100)” value (Wheat (cultivar; Apogee); foliar spray 10 ppm, high temperature stress) was 104% and the “Average fresh weight of young ears” value (Wheat (cultivar; Apogee); foliar spray 100 ppm) was 1.87 grams/3 plants. The “Percent (untreated control = 100)” value (Wheat (cultivar; Apogee); foliar spray 100 ppm, high temperature stress) was 115%, the change in vivo at 10 ppm (tomato) was 8.3% and the “Average fresh shoot weight versus untreated control, in words” value ([1]; across 0.005 to 0.5 gram per 100 kilogram seeds) was “larger than that of the untreated control group”. For the same compound, the “Percent (shoot weight, untreated control = 100)” value [1, 3] was 104%, the “Average weight of the shoots” value [1, 3] was 4.0 grams/plant and the “Percent (shoot weight, untreated control = 100)” value [1, 4] was 133%. For the same compound, the “Average weight of the shoots” value [1, 4] was 5.1 grams/plant, the “Percent (shoot weight, untreated control = 100)” value [1, 5] was 115% and the “Average weight of the shoots” value [1, 5] was 4.4 grams/plant. The “Shoot Length” value (mungbean; 1 ppm) was 5.5 cm, the “Root Length” value (mungbean; 1 ppm) was 9.9 cm and the “Percent Change in Primary Root Length of Mungbean” value (mungbean; 10 ppm (10 mg/L), benzyl ring substitutions) was 10.4%. For the same compound, the “Shoot Length” value (mungbean; 10 ppm) was 5.2 cm, the “Root Length” value (mungbean; 10 ppm) was 10.6 cm and the “Shoot Length” value (mungbean; 25 ppm) was 4.7 cm. The “Root Length” value (mungbean; 25 ppm) was 9.5 cm, the “Shoot Length” value (mungbean; 50 ppm) was 3.9 cm and the “Root Length” value (mungbean; 50 ppm) was 5.8 cm. The change in vivo at 10 ppm (mungbean; 96 h, 10 ppm (10 mg/L), benzyl ring substitutions, read-out: Percent Change in Primary Root Length of Mungbean) was 10.4%, the “Effect on mungbean root (and shoot) growth, in words” value (mungbean; mungbean pouch assay) was “only a moderate increase in root growth” and the “Root Length” value ([2]; 0.1 ppm) was 3.7 cm. For the same compound, the “Root Length” value ([2]; 0.25 ppm) was 4.4 cm, the “Root Length” value ([2]; 0.5 ppm) was 3.7 cm and the “Root Length” value ([2]; 1.0 ppm) was 3.8 cm.
